Patent publication US20230404075A1, “RHIZOBIA SYMBIOSIS PROMOTING AGENT AND SYMBIOSIS PROMOTION METHOD” (TOYOTA JIDOSHA KABUSHIKI KAISHA, priority 2020, published 2023)

How the values were obtained:
[1] = system: Miyakogusa (Lotus japonicus); experiment: Root nodule formation (number of infection threads, number of root nodules) in Miyakogusa inoculated with DsRED gene-bearing rhizobium; format: in vivo; conditions: final concentration 10 μM or 100 μM, vs Non-addition (control)
Procedure: First, caffeic acid (Caffeic Acid, CAS RN: 331-39-5 C0002, Tokyo Chemical Industry Co., Ltd.) was dissolved in ethanol, thereby preparing a 100 mM stock solution. Next, about 300 mL of vermiculite was added to pots, entirely moistened with water, and then sterilized in an autoclave. Miyakogusa (Lotus japonicus) three to four days after sowing was transplanted into the pots, and 50 mL of B&D liquid medium (Broughton and Dilworth, 1971) containing a DsRED gene-bearing rhizobium (OD600=[…]; 1 mL) and caffeic acid (final concentration: 10 μM or 100 μM) was added.
Plants inoculated with the rhizobium were grown in an incubator (26° C.; 16 hr light/8 hr dark). The plants were dug up from the soil after one week and two weeks, and the number of infection threads and the number of root nodules were counted under a fluorescent stereomicroscope.
In FIG. 1, error bars in the graphs represent standard errors, and asterisks (*) indicate data with a significant difference (Dunnett method: p<0.05; n=10) compared to Non-addition (control).

[2] = system: soybean (Glycine max cv. Enrei); experiment: Biomass production and root nodule formation in soybean inoculated with rhizobia (Bradyrhizobium japonicum); format: in vivo; conditions: 100 μM, vs Non-addition (control), Dunnett p<0.01, n=8
Procedure: In this Example, first, seeds of the soybean (Glycine max cv. Enrei) were placed on wet Kimwipes® for three to four days to germinate and then transferred to pots containing vermiculite (about 1.1 L) and grown for about three days in a plant incubator (28° C.; 16 hr light/8 hr dark). Next, a non-addition plot was prepared by adding rhizobia (Bradyrhizobium japonicum; OD600=0.1; 1 mL) to 50 ml of B&D medium. An addition plot was prepared by adding ferulic acid (final concentration: 100 μM) to 50 mL of B&D medium containing rhizobia. They were inoculated into the individual soybean plants. Soybean plants grown in the incubator for one week and two weeks were dug up from the pots, and their growth (aerial part length, underground part length, number of leaves) and number of root nodules were measured.
In FIGS. 4 and 5, error bars in the graphs represent standard errors, and asterisks (**) indicate data with a significant difference (Dunnett method: p<0.01; n=8) compared to Non-addition (control).

[3] = after two weeks, Dunnett p<0.05, n=10

`O=C(O)/C=C/c1ccc(O)c(O)c1` [caffeic acid] was tested, and the “number of infection threads” value ([1]; after one week, Dunnett p<0.05, n=10) was “significant increase” and the “number of root nodules” value [1, 3] was “tendency for the number of root nodules to increase”.
For `COc1cc(/C=C/C(=O)O)ccc1O` [ferulic acid, 3-methoxy-4-hydroxycinnamic acid], the “number of infection threads” value ([1]; after two weeks) was “significant increases”, the “number of root nodules” value [1, 3] was “significant increases” and the “number of root nodules” value ([2]; soybean grown for one week) was “significantly increased”. For the same compound, the aerial part length ([2]; soybean grown for two weeks) was “significantly increased” and the “number of root nodules” value ([2]; soybean grown for two weeks) was “significantly increased”.
In the case of `COc1cc(/C=C/C(=O)O)cc(OC)c1O` [sinapinic acid, 3,5-Dimethoxy-4-hydroxycinnamic Acid], the “number of root nodules” value ([1]; after one week) is reported as “significant increase” and the “number of infection threads” value ([1]; after two weeks) is reported as “significant increase”.
